Laboratory results taken from US20130150430A1, “Methods for Impairing the P53/HDM2 Auto-Regulatory Loop in Multiple Myeloma Development Using mIR-192, mIR-194 and mIR-215” (THE OHIO STATE UNIVERSITY, priority 2011, published 2013).

Tests used:
Type in all cases: cell-based, human
MM1s and NCI-H929 cells = test: Cell cycle analysis by flow cytometry; settings: 48 hr of transfection after nocodazole synchronization; scrambled-transfected ~30%
Procedure: FIG. 3G, FIG. 3H, FIG. 31, FIG. 3J: Flow cytometry analysis in MM1s (FIG. 3G), NCI-H929 (FIG. 3H) and KMS28BM (FIG. 31) cells (miR-192, miR-194, miR-215 and Scr transfected) at 48 hr of transfection, after first being arrested and synchronized in G2/M phase by Nocodazole for 16 hr. Apoptosis in KMS28BM was evaluated by caspase-3 activity (FIG. 3J). All experiments were performed in triplicate ±SD.
Nocodazole was (Sigma-Aldrich) was dissolved in DMSO as a stock solution of 10 mg/ml for cell cycle arrest in G2/M phase. Cells were first arrested and synchronized in G2/M phase by growth in 80 nM nocodazole for 16 hr. Cells were then washed and fresh medium added. After 6 hr, cell cycle analysis was performed by propidium iodide staining. Corresponding amounts of DMSO alone were added in control experiments. […] For DNA content analysis, cells were fixed in methanol at −20° C., washed again, rehydrated, re-suspended in PBS containing 50 μg/ml propidium iodide (PI) and 50 μg/ml RNase A, and analyzed by flow cytometry (Becton Dickinson). […] After the treatment the cells were analyzed using Caspase-Glo 3 Assay kit (Promega) according to the manufacturer's instructions. Continuous variables were expressed as mean values ± standard deviation (s.d.).

MM1s cells = test: Caspase-3 activation assay with MI-219 in miRNA-transfected cells; settings: MI-219 in presence of the miRNA; p<0.001
Procedure: FIG. 5C: Apoptotic effect at different concentrations and time points for each miRNA transfected cells was assessed by caspase-3 activation assay.
Nocodazole was (Sigma-Aldrich) was dissolved in DMSO as a stock solution of 10 mg/ml for cell cycle arrest in G2/M phase. Cells were first arrested and synchronized in G2/M phase by growth in 80 nM nocodazole for 16 hr. Cells were then washed and fresh medium added. After 6 hr, cell cycle analysis was performed by propidium iodide staining. Corresponding amounts of DMSO alone were added in control experiments. In experiments involving transfection and MI-219 treatment, the cells were first transfected, incubated for 24 hr, and then treated with the chemotherapeutic drug for 24 hr. For DNA content analysis, cells were fixed in methanol at −20° C., washed again, rehydrated, re-suspended in PBS containing 50 μg/ml propidium iodide (PI) and 50 μg/ml RNase A, and analyzed by flow cytometry (Becton Dickinson). For detection of caspase 3 activity, KMS28BM and MM1s cells were cultured in 96-well plates and treated with Nutlin-3a. After the treatment the cells were analyzed using Caspase-Glo 3 Assay kit (Promega) according to the manufacturer's instructions. Continuous variables were expressed as mean values ± standard deviation (s.d.).

[1] = system: IGF-1R and IGF-1 in MM1s cells; test: Western blot of IGF-1R and IGF-1 after miRNA transfection; settings: pre-miRNA transfected
Procedure: FIG. 6A, FIG. 6B: Western blot showing IGF-1R and IGF-1 expression after miR-192 and miR-215 transfection using pre (FIG. 6A) and ASOs (FIG. 6B) for miR-192, miR-215, miR-194 and Scr in MM1s cells treated for 12 hr with Nutlin-3a.
Samples were extracted in 15 mM Tris.Cl, pH 7.5/120 mM NaCl/25 mM KCl/2 mM EGTA/0.1 mM DTT/0.5% Triton X-100/[…] leupeptin/0.5 mM PMSF. Total protein (35 μg) from each sample was separated on a 4-20% Tris-HCl-Criterion precast gel Bio-Rad (cat#345-0032, Hercules, Calif.) and transferred to a poly(vinylidene difluoride) filter (Millipore). The filter was blocked in 5% nonfat dry milk, incubated with the specific antibody, washed, and probed with secondary antibody IgG conjugated to horseradish peroxidase (Santa Cruz Biotechnology), and developed with enhanced chemiluminescence (Amersham Pharmacia). […]

[2] = system: NCI-H929 and RPMI-8226 IGF-1 treated cells; test: Intra-epithelial trans-well migration assay with IGF-1 as attractant; settings: ectopic expression, vs Scr control
From the text: FIG. 7B: Intra-epithelial migration assay in MM cells miRNAs transfected using HS-5 cells at different concentrations of IGF-1 as attractant. Bars indicate relative fold change of migration compared with the control ±SD.
FIG. 21C: Intra-epithelial migration assay in MM1s and RPMI-8226 cells (pre-miRNA-192, -194, -215, Scr-transfected) using HS-27A stromal cell as cellular layer at different concentrations of IGF-1 as attractant. Bars indicate relative fold change of migration compared with the control. All experiments were performed in triplicate.
To this end, the inventors used intra-epithelial trans-well migration assay with IGF-1 at various concentrations as attractant and two bone marrow-derived stromal cells, HS-5 (fibroblast-like) and HS-27A (epithelial-like) as cell layer.
IGF-I-induced MM transendothelial migration was determined using 24 well, 6.5 mm internal diameter transwell cluster plates with polycarbonate membranes ([…] pore size) separating the 2 chambers (Corning Costar, Cambridge, Mass.). Bone marrow stromal cell lines HS-5 and HS-27A were grown on the insert for 24 hrs to produce a confluent monolayer. […] At the end of the incubation period, cells migrating through endothelial or bone marrow stromal cell layers into the lower chamber were harvested, stained with trypan blue, and counted under a microscope.

Substance	cells in G0/G1 arrest (MM1s and NCI-H929 cells)	caspase-3 activation induced by MI-219 (MM1s cells)	IGF-1R and IGF-1 protein levels [1]	migration and tissue invasion [2]
miR-215: microRNA, p53-activated, down-regulated in MM; transfected as miRNA precursor (Ambion) or lentivector; SEQ ID NO:58 (AUGACCUAUGAAUUGACAGAC; listed as RNA, chemistry not given here; listed as Homo sapiens)	~60%	higher caspase-3 activation	decreased	significant decrease
miR-192: microRNA, p53-activated, down-regulated in MM; transfected as miRNA precursor (Ambion) or lentivector; SEQ ID NO:56 (CUGACCUAUGAAUUGACAGCC; listed as RNA, chemistry not given here; listed as Homo sapiens)	~60%	higher caspase-3 activation	decreased	significant decrease
